In general, LOAEL refers to the lowest tested level that showed an adverse finding.

Values joined by “and” are separate entries in the source; they are usually repeats but may differ in a detail not shown here. Equal values may be shown once.

Data set [1] has as its system hamster infundibula. Kind of data set: Infundibular muscle contraction assay. Type of data set: cell-based, golden hamsters (Mesocricetus auratus). The source says: The infundibular muscle contraction assay was developed after observing consistent infundibular contractions that slowed or ceased after treatment with mainstream smoke solutions. Perfusion chambers containing infundibula were placed on a Wild stereoscopic microscope (model BD-HF) and viewed at 50×. A video image was sent from the microscope to a Dell computer using a Hitachi camera and the infundibular contractions could be observed and measured on the computer monitor. As the infundibulum contracted, the image shown on the monitor moved a measurable distance. This distance was measured during each contraction by placing a ruler against the computer monitor. These values (in centimeters) were then converted to actual distance by capturing an image of a ruler under the microscope and converting the measured values to micrometers. Frequency was also measured by observing the contracting infundibula on the computer monitor. The number of times the infundibulum contracted per minute was recorded. Each parameter was measured four to six times per infundibulum per treatment group.
For the ciliary beat frequency, oocyte pickup rate, and infundibular muscle contraction graphs, purified 3-ethylpyridine was purchased and dissolved in EBSS. […]

Data set [2] concerns chick chorioallantoic membrane (CAM). Kind of data set: Chick chorioallantoic membrane (CAM) assay, CAM area. As to the method: The chick chorioallantoic membrane (CAM) assay is perhaps the most widely used assay for screening anti-angiogenic or growth inhibitory compounds (see, e.g. Ribatti et al., Int. J. Dev. Biol. 40:1189-1197 (1996)). Cell proliferation and angiogenesis were evaluated by measuring CAM area and BrdU labeling using the CAM assay as modified by Melkonian et al., J. Exp. Zool. (2001), in review. Fertilized chicken eggs were purchased from Hy-Line International (Lakeview, CA), then incubated at 37° C. at 85-90% relative humidity throughout the experiment. Experiments were done to evaluate cell proliferation, angiogenesis, and vascularization in CAMs between days 5 and 6 after fertilization. Albumin (2.5-3.0 cc) was removed on the fourth day after fertilization to drop the embryo away from the shell. Windows were then made in shells, and sealed with transparent tape to allow subsequent access to the CAM for experimental treatment. 200 μl of either EBSS-H or different concentrations of pure chemicals were added to the surface of each CAM at 10 AM on the fifth day after fertilization. A sham control group in which the window was opened and resealed was also included in each experiment. In all cases, the following five concentrations of test reagents were used, 5×10^−3 M, 5×10^−5 M, 5×10^−7M, 5×10^−9 M and 5×10^−11M. For 2-ethylpyridine and 3-ethylpyridine additional concentrations of 5×10^−12M, 5×10^−13M, 5×10^−14 M and 5×10^−15 M were used. For nicotine and nornicotine, concentrations of 5×10^−4 M, 5×10^−6 M, 5×10^−8 M and 5×10^−10 M were also used. Development was terminated at 10 AM on the sixth day after fertilization by fixing the embryo and the CAM with 3% glutaraldehyde in 0.1M cacodylate buffer (pH 7.4) for 2 hours at room temperature. A small volume of fixative was also injected under the CAM. The CAMs were later dissected from eggs, post-fixed in the same fixative for 24 hours at room temperature, then thoroughly rinsed in PBS.
At least 6 CAMs were used in each control and experimental group. Parameters which measure aspects of cell proliferation, angiogenesis, and vacularization were quantified for each CAM. These parameters include: (1) for cell proliferation—CAM area, BrdU labeling of nuclei; (2) for angiogenesis—blood vessel pattern, blood vessel area, blood vessel diameter, and blood vessel branching; (3) for vascularization—density of angiogenic clusters. The area of each CAM was measured by placing the CAMs in PBS in a Petri dish under a Wild-M5A dissecting microscope (Max ERB instrument Co., Burbank, CA), then measuring the longest and shortest length of each CAM with a ruler to the precision of 0.5 mm. The data were recorded into Excel spreadsheet. CAM area was calculated using the formula:
where A=longest length, B=longest width, π=3.14.
Means and standard deviations were then calculated for each control and treatment group. The treated group means were used to compare with control means to determine the effect of each chemical on CAM growth.
On the fifth day after fertilization, either EBSS-H or different concentrations of test chemicals were added to each CAM. A sham group in which windows were opened and resealed without adding any solution was also included to determine if the vehicle EBSS-H had any effect on CAM area. Development was terminated 24 hours later, and CAMs were measured as described in Materials and Methods.

Data set [3] deals with hamster oviduct explants (infundibulum). Nature of the data set: Ciliary beat frequency assay. It is filed as cell-based, golden hamsters (Mesocricetus auratus). As to the method: Ciliary beat frequency was measured using hamster oviduct explants in an in vitro assay (Knoll et al., 1998, supra; Talbot et al., 1998, supra). Perfusion chambers containing infundibula were placed on a Wild stereoscopic microscope (model BD-HF) and viewed at 50×. A video image was sent from the microscope to a Dell computer using a Hitachi camera and recorded using a VCR onto a Super VHS videotape. To measure cilia beat frequency the videotape was played back frame-by-frame. The VCR recorded 15 frames per second. Each frame represented a fraction of a cycle; the completion of a cycle was equivalent to one beat. Number of frames per cycle (or frames per beat) were measured and then converted into beats per second. Ten measurements were made for each infundibulum for each treatment group. Recordings were made for 40-60 seconds per region, which ensured an adequate amount of data for analysis.
For the ciliary beat frequency, oocyte pickup rate, and infundibular muscle contraction graphs, purified 3-ethylpyridine was purchased and dissolved in EBSS. A hamster infundibulum was exposed to a dose range of 9.33 e-7 to 9.33 e-4 mM (four dose groups total) for five minutes and oocyte pickup rate, ciliary beat frequency, and infundibular contraction were measured. […]

Data set [4] shares this test system. Kind of data set: Oocyte pickup rate (OPR) assay. It is filed as cell-based, golden hamsters (Mesocricetus auratus). As to the method: Hamsters were injected with 25 I.U. of human chorionic gonadotropin (hCG) on the evening of Day 4 of their estrous cycle. On the day of the experiment, approximately 12 hours after the injection of hCG, hamsters were sacrificed using CO2, and oviducts and ovaries were removed. During dissection the oviduct and ovary were separated. Ovaries were isolated in EBSS-HA and expanded follicles were poked with a dissecting needle to release the oocyte cumulus complexes (OCCs). Oocyte cumulus complexes were transferred to a fresh Petri dish and placed in EBSS-HA. The infundibulum was cut from the oviduct leaving part of the ampulla attached to function as a handle. […]
Oocyte cumulus complex pick-up rate was measured using hamster oviduct explants in an in vitro assay (Huang et al., 1997, supra; Knoll et al., 1998, supra; Talbot et al., 1998, supra). […] An oocyte cumulus complex was placed at the base of the infundibulum and the length of time needed for the complex to traverse a defined path to the ostium was recorded. […] Then the test smoke solution or chemical was added to the perfusion chamber and allowed to incubate for five minutes after which pickup-rate was measured again. […] Oocyte pickup-rate was measured again and this rate was recorded as the “recovery” measurement. […]

Where [5] appears, read: five minutes, single infundibulum.
The mark [6] stands for this setting: CAM area, day 5-6 CAMs, 24 hours.

Regarding `CCc1cccnc1` [3-ethylpyridine], in data set [1] (setting [5]), the “concentration at which infundibular muscle contraction rate was significantly inhibited” value is reported as 9.33 e-7 mM. For the same molecule, the “reversibility of effect on contraction rate after the recovery period” value in data set [1] (recovery period) is reported as “partially reversible”. Moreover, in data set [2] (CAM area), the “lowest effective dose lower than that of the single pyridine ring” value came out at 10 million. Also, in data set [2] (setting [6]), the “LOAEL” value was 5.36e-10 mg/mL, the “LOAEL (Molar)” value was determined as 5 pM and the “NOAEL (Molar)” value stood at 0.5 pM. Also, the minimal effective concentration in data set [2] (Gallus gallus, 24 h, read-out: lowest effective dose on CAM area) is 5e-06 µM and 5.4e-07 µg/mL. Also, in data set [3] (setting [5]), the “concentration at which ciliary beat frequency was significantly inhibited” value was 9.33 e-7 mM. In data set [3] (recovery period), the “CBF during the recovery period” value was “continued to decrease”. Moreover, the “concentration at which oocyte pickup rate was significantly inhibited” value in data set [4] (setting [5]) is 9.33 e-7 mM. The “reversibility of effect on OPR after the recovery period” value in data set [4] (recovery period) is given as “partially reversible”.

Values taken from patent publication US20030064989A1, “Inhibitors of cell proliferation, angiogenesis, fertility, and muscle contraction” (priority 2001, published 2003).
